Series [1] relates to everted sacs prepared from rat intestine. Briefly: Glucose uptake into everted sacs of rat intestine. As to conditions: for Effect on basal glucose transport: ICI 118,551 10 μM with 2.5 mM glucose; for Effect on basal glucose transport / Effect on epinephrine stimulation of glucose uptake: colchicine 5 μM; for Effect on epinephrine stimulation of glucose uptake: epinephrine 10 μM, mPKI 1 μM; for Effect on epinephrine stimulation of glucose uptake / Inhibition of the stimulation of glucose transport by mannose: ICI 118,551 10 μM; for Inhibition of the stimulation of glucose transport by mannose: LX4211 2 μM (also inhibits glucose transport itself). As to the method: Rats weighing around 150 g were fasted overnight before the experiment, and euthanized by cervical dislocation on the day of the experiment. The abdomen was opened by a midline incision, and a segment of around 35 cm of proximal intestine was isolated. The intestinal segment was rinsed with ice-cold Ringer solution (composition (mM): 140 NaCl, 5 KCl, 1 MgCl2, 2 CaCl2, 10 HEPES, 10 TRIS, gassed with 95% O2 and 5% CO2, pH 7.4), and 4-7 everted sacs were prepared, each approximately 3 cm in length, by tying off the ends of the intestinal segments with threads (46). The sacs were filled with Ringer solution containing 5 mM mannitol (Sigma Aldrich) (to maintain osmotic balance) and L-glutamine (2 mM) (Sigma Aldrich) (as an energy source). Each everted sac was transferred to a separate glass beaker containing 50 mL continuously oxygenated Ringer solution with L-glutamine (2 mM), and maintained in a water bath at 37° C. Then, epinephrine 10 μM (Sigma Aldrich), mannose 5 mM (Sigma Aldrich), ICI 118,551 10 μM (Sigma Aldrich), phlorizin 100 μM (Sigma Aldrich), LX4211 2 μM (MedKoo Biosciences, Inc. USA.) or Ringer solution were added to the respective beaker for a 15-min pre-incubation (concentrations indicate final concentrations of the compounds). For the sacs treated with ICI 118,551, phlorizin or LX 4211, the inhibitors were added before mannose or epinephrine. After pre-incubation, 5 mM glucose, or 2.5 mM glucose for the ICI 118,551 control experiment, was added to the external buffer to initiate glucose transport. […] These samples were analyzed using a glucose assay kit based on glucose oxidase (Sigma Aldrich, for details, see below). […] Also for colchicine, a TRIS-free Ringer solution was used, as TRIS interferes with colchicine activity (130). […] We noticed that it was important to take certain precautions during these experiments: the intestine was never allowed to overfill and be stretched while rinsing the intestinal lumen at the time of isolation and filling the everted sac with Ringer solution. Trapping air bubbles inside the everted sac was avoided. Also, the regions of the intestine where mucus was still present were not used for preparing everted sacs. […] The glucose concentration of the samples was assayed by a glucose assay kit (Sigma Aldrich, GOD/POD method). The assay procedure recommended by the kit was modified for small sample volumes as follows. Fifty μL of sample was transferred to a well of a 96-well plate, and at time zero, the reaction was started by adding 100 μL of assay reagent to the first well, and mixing. Each well was allowed to react for exactly 30 min at 37° C. The reaction was stopped by adding 100 μL of 12 N H2SO4 (Merck) into each well, and carefully mixing. The absorbance was measured at 540 nm with a plate reader (Tecan 200).

The target in series [2] is human β2-AR (Homo sapiens, UniProt P07550). The series can be described thus: Calcium response (Fluo-4) in Flp-In-293 cells stably transfected with ADRB2 and GNA15. Format: cell-based. Particulars: for Activation of the β2-AR by sugars (calcium response): sugars at 50 mM, listed in order of decreasing intensity.
Method: Assessment of β2-AR responses in cultured mammalian cells. […] The cell line expressing both β2-AR and Gα16 was selected in two successive transfection steps. First, Flp-In-293 cells were co-transfected with pMET7-ADRB2-FRT and pOG44. After Flp recombinase-assisted stable integration, an isogenic cell pool expressing the β2-AR was selected in hygromycin-containing medium (100 μg/ml). Second, the isogenic cell pool was cotransfected with p-GNA15 and pIRES-Puro2 (Clontech) in a 5:1 ratio, followed by selection of single clones in medium containing puromycin (0.8 μg/ml). Flp-In-293 cells were maintained in DMEM medium (Gibco), containing penicillin/streptomycin (Sigma) and fetal bovine serum (Sigma) (10%). Hygromycin (100 μg/mL) was added for cells containing the ADRB2 construct, and puromycin (1 μg/mL) was added for the cells containing the GNA15 construct. The Flp-In-293 cells were transferred for β2-AR assays to clear- and flat-bottom 96-well plates in DMEM (Gibco) containing dialyzed fetal bovine serum (Sigma). The plates were coated with fibronectin (Sigma). For that purpose, the fibronectin solution was diluted 40 times in PBS, added in the plate wells (60 μL), and removed again after incubation for 1 h, after which the plates were allowed to dry for 1 h. The Fluo-4 NW kit (Invitrogen) was used for detection of calcium signals following the manufacturer's protocol. All compounds tested were dissolved in HBSS (Sigma) at 37° C. Adrenergic antagonists (Sigma) were always added together with the Fluo4 compound, 50 min before addition of agonist. Agonists were added just prior to the actual measurement of the calcium signals generated. The Flexstation II apparatus (Molecular Devices) was used to perform calcium measurements. After overnight growth of the cells in transfer medium in the aforesaid multiwell-96 plates, the medium was removed, the cells incubated with 100 μL of the loading dye solution (Fluo-4), the plates covered with aluminum foil, and incubated at 37° C. for 30-50 min.
The nature of series [3]: Caco-2 permeability assay. Format: in vitro ADME, human. Particulars: human. The text has this:
(§1) Caco-2 cell permeability data of compound CD3-403 (apical to basal (A-B) and basal to apical (B-A), measured at pH 7.4 in both apical and basal compartment)

Series [4] has as its system Caco-2 cells. The series can be described thus: Caco-2 permeability assay. Format: in vitro ADME, human.
Source text: as §1
(In general: Caco-2 cells form a polarised layer with tight junctions and transporters.)

[5] abbreviates: summary of screening, read-out: IC50.
Where [6] appears, read: Caco-2, pH 7.4, test concentration 1.0E−06 M.
The mark [7] stands for this setting: Rattus norvegicus, 1.25 h, phlorizin 100 μM, LX4211 2 μM, glucose accumulated after 75 min.

Entries after “also recorded” stand apart in the source; their conditions may differ. Like-named read-outs stand apart in the source and are kept apart here. The star is where a group is joined. Myristoyl = CCCCCCCCCCCCCC(=O)* Where only a bound is given, the exact number is not on record here.

The IC50 is the concentration that inhibits the measured activity by half. What is called Papp A→B is the apparent permeability from the apical to the basolateral side of a cell layer. As usually defined, the Papp B→A is how fast a substance crosses the layer from the basolateral side. Broadly, the efflux ratio is a quotient of directional permeabilities that is used to spot active efflux. By EC50 is commonly meant the concentration giving half of the maximal effect. One may read the inhibition as the percentage by which the read-out fell short of the control.

Take `COc1cc2c(c(OC)c1OC)-c1ccc(OC)c(=O)cc1[C@@H](NC(C)=O)CC2` [Colchicine]: in series [1], the “Effect on basal glucose transport” value was “not basal glucose uptake”. Further, in series [1] (phlorizin 100 μM), the “Effect on epinephrine stimulation of glucose uptake” value (“Effect on epinephrine stimulation” below) is given as “completely blocked”.
Regarding `O=CC[C@@H](O)[C@H](O)[C@H](O)CO` [2 deoxy-D-glucose], in series [2], the “Activation of the β2-AR by sugars (calcium response)” value (from here on “Activation … (calcium response)”) was “activated”.
For the compound `Cc1c[nH]c2cccc(OC[C@H](O)CNC(C)(C)C)c12` [CD3-T1], in series [2] (concentration response curve, 1st experiment, read-out: IC50 (nM) 1st experiment), the IC50 came out at 6 nM. In addition, the IC50 in series [2] (concentration response curve, 2nd experiment, read-out: IC50 (nM) 2nd experiment) amounted to 0.6 nM. Also, in series [2] (setting [5]), the concentration for half-maximal inhibition (IC50) stood at 6 nM. In addition, in series [3] (setting [6]), the Papp A→B is 54.7 ×10⁻⁶ cm/s and the Papp B→A was found to be 17.8 ×10⁻⁶ cm/s. For the same compound, in series [3] (Caco-2, summary, read-out: Permeability in Caco2 assay), the Papp at 1 μM came to 54.7 ×10⁻⁶ cm/s. Besides, the efflux ratio at 1 µM in series [3] (Caco-2, test concentration 1.0E−06 M) turned out to be 0.325. In series [4] (test concentration 1.0E−06 M), this compound registered a MeanRecovery (A-B) of 71% and a MeanRecovery (B-A) of 87%.
As for maltotriose, the EC50 in series [2] (calcium response (FIG. 2d)) is roughly 10000 µM. The “Activation … (calcium response)” value in series [2] is recorded as “activated”.
`OC[C@H]1O[C@H](O[C@H]2[C@H](O)[C@@H](O)C(O)O[C@@H]2CO)[C@H](O)[C@@H](O)[C@@H]1O` (mixture of isomers) [maltose]: the “Activation … (calcium response)” value in series [2] is reported as “activated”.
For the compound `CC(C)(C)NCC(O)COc1cccc2c1CC(O)C(O)C2` (stereo not drawn) [nadolol, reference compound], the “Inhibition of the epinephrine response” value in series [2] (200 μM antagonist, 20 nM epinephrine) is given as “Inhibition”. Further, the “Inhibition of sugar responses” value in series [2] (200 μM antagonist, 70 mM sugar) is “inhibited; also recorded: Inhibition”. The “Block of the calcium response to epinephrine” value in series [2] (Flp-In-293 β2-AR/Gα16 cells, Fluo4 fluorescence (FIG. 2a)) is on record as “blocked”.
As to `COc1ccc(OC)c(C(O)C(C)NC(C)(C)C)c1` (stereo not drawn) [Butoxamine, reference compound], in series [2] (second CD3 compounds overview table, epinephrine 5 nM, read-out: IC50), the IC50 turned out to be 14300 nM.
The compound `O=C(CCc1ccc(O)cc1)c1c(O)cc(O)cc1O[C@@H]1O[C@H](CO)[C@@H](O)[C@H](O)[C@H]1O` [phlorizin] had an inhibition at 100 µM in series [1] (setting [7]) greater than 90%. Also, the “Effect on epinephrine stimulation” value in series [1] (phlorizin 100 μM) is “inhibited both basal and enhanced glucose uptake”.
Take “Myristoylated PKI 14-22 amide (Myristoyl-GRTGRRNAI-NH2; SMILES CCCCCCCCCCCCCC(=O)NCC(=O)N[C@@H](CCCNC(=N)N)C(=O)N[C@H](C(=O)NCC(=O)N[C@@H](CCCNC(=N)N)C(=O)N[C@@H](CCCNC(=N)N)C(=O)N[C@@H](CC(N)=O)C(=O)N[C@@H](C)C(=O)N[C@H](C(N)=O)[C@@H](C)CC)[C@@H](C)O; UniProt P61925 15-23, looked up, fragment)”: the “Effect on epinephrine stimulation” value in series [1] (phlorizin 100 μM) is given as “partially inhibited”.
For `Cc1ccc(OCC(O)C(C)NC(C)C)c2c1CCC2` (stereo not drawn) [ICI 118,551], in series [1], the “Effect on basal glucose transport” value was “did not have any effect” and the “Inhibition of the stimulation of glucose transport by mannose” value was “abolished”. Also, the “Effect on epinephrine stimulation” value in series [1] (phlorizin 100 μM) is reported as “completely prevented”.
Take `N[C@H]1C(O)O[C@H](CO)[C@@H](O)[C@@H]1O` (stereo partly drawn) [Glucosamine]: in series [2], the “Activation … (calcium response)” value is “very little effect”.
`OC[C@H]1O[C@H](O[C@H]2O[C@H](CO)[C@@H](O)[C@H](O)[C@H]2O)[C@H](O)[C@@H](O)[C@@H]1O` [trehalose]: the “Activation … (calcium response)” value in series [2] is on record as “activated”.
For the compound `CCOc1ccc(Cc2cc([C@@H]3O[C@H](SC)[C@@H](O)[C@H](O)[C@H]3O)ccc2Cl)cc1` [LX4211], in series [1], the “Inhibition of the stimulation of glucose transport by mannose” value was “completely inhibited”. In series [1] (setting [7]), this compound had an inhibition at 2 µM greater than 90%.
Consider `O=C[C@H](O)[C@@H](O)[C@H](O)CO` [xylose], for which, in series [2], the “Activation … (calcium response)” value is reported as “activated”.
Turning to `O=C(CO)[C@@H](O)[C@H](O)[C@H](O)CO` [fructose], in series [2], the “Activation … (calcium response)” value is listed as “activated”.
As for `CC(C)(C)NCC(O)COc1cccc2[nH]cc(CC(=O)NN)c12` (racemic) [CD3 X], the IC50 in series [2] (setting [5]) came out at 70 nM. Moreover, the “Permeability class in Caco2 assay” value in series [4] (summary) is listed as “low permeability”.

The values above are taken from US20250312310A1, “Beta2-adrenergic receptor antagonists for use in treating diabetes or obesity” (NovelYeast bv, priority 2021, published 2025).
